Values quoted from earlier work, collected in patent US20100092463A1, “Method for treating or preventing osteoporosis by reducing follicle stimulating hormone to cyclic physiological levels in a mammalian subject” (Searete LLC, a limited liability corporation of the State …, priority 2008, published 2010).
Where a SMILES comes first, the peptide text is derived from it. [ ]: non-standard residue; d: D form. d(hArg(Et2)) = CCN=C(NCC)NCCCC[C@@H](N)C(=O)O; hArg(Et2) = CCN=C(NCC)NCCCC[C@H](N)C(=O)O; dPhe(4-Cl) = N[C@H](Cc1ccc(Cl)cc1)C(=O)O; d2Nal = N[C@H](Cc1ccc2ccccc2c1)C(=O)O; dCit = NC(=O)NCCC[C@@H](N)C(=O)O; d3Pal = N[C@H](Cc1cccnc1)C(=O)O

Details: most common adverse effects being nausea and headache

Row | SMILES | tolerability
1 | CCN=C(NCC)NCCCC[C@H](NC(=O)[C@H](CC(C)C)NC(=O)[C@@H](CCCCNC(=NCC)NCC)NC(=O)[C@H](Cc1ccc(O)cc1)NC(=O)[C@H](CO)NC(=O)[C@@H](Cc1cccnc1)NC(=O)[C@@H](Cc1ccc(Cl)cc1)NC(=O)[C@@H](Cc1ccc2ccccc2c1)NC(C)=O)C(=O)N1CCC[C@H]1C(=O)N[C@H](C)C(N)=O [ganirelix] (Ac-[d2Nal][dPhe(4-Cl)][d3Pal]SY[d(hArg(Et2))]L[hArg(Et2)]P[dA]-NH2) | well tolerated
2 | CC(=O)N[C@H](Cc1ccc2ccccc2c1)C(=O)N[C@H](Cc1ccc(Cl)cc1)C(=O)N[C@H](Cc1cccnc1)C(=O)N[C@@H](CO)C(=O)N[C@@H](Cc1ccc(O)cc1)C(=O)N[C@H](CCCNC(N)=O)C(=O)N[C@@H](CC(C)C)C(=O)N[C@@H](CCCNC(=N)N)C(=O)N1CCC[C@H]1C(=O)N[C@H](C)C(N)=O [cetrorelix] (Ac-[d2Nal][dPhe(4-Cl)][d3Pal]SY[dCit]LRP[dA]-NH2) | well tolerated
